One test concerns HeLa cells. Kind of test: Proliferation assay (HeLa cell line). The test is classed as cell-based. The note with it: read-out: Biological Assay 2: Proliferation assay (HeLa cell line) median IC50.
Test [1] has as its target catalytic domain of human Bub1 (amino acids 704-1085) (Homo sapiens (Human), UniProt O43683). Kind of test: Bub1 kinase assay (TR-FRET). The test is classed as biochemical. The note with it: 10 μM ATP, 1 μM peptide substrate; read-out: Biological Assay 1: Bub1 kinase assay median IC50. In short, it runs like this:
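Phosphoserine product detected by TR-FRET (Eu-labeled anti-mouse IgG/anti-phosphoserine antibody to streptavidin-XL665) after 1 h at 22 °C. IC50 from 4-parameter logistic fit.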
Background: Time-resolved FRET reads energy transfer from a long-lived donor to a nearby acceptor.

[2] abbreviates: Homo sapiens, 96 h, 4 days, crystal violet.

Molecules are shown by their SMILES. Where two headings read alike, the source gives them in different places.

Sequence of catalytic domain of human Bub1 (amino acids 704-1085) (O43683 704-1085): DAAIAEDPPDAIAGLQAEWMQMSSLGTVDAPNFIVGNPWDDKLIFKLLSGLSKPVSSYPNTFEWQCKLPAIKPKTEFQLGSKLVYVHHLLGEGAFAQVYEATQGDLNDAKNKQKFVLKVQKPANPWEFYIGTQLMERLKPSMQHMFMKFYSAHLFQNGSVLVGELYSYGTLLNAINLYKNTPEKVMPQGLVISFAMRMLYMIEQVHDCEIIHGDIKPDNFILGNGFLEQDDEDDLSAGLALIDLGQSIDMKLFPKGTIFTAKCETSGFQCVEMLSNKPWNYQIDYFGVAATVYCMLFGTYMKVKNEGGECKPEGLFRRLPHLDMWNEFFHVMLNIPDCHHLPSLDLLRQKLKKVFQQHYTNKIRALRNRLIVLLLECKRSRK

On to `COc1cnc(-c2nn(Cc3ccc(C(=O)OC(C)(C)C)cc3Cl)c3ccccc23)nc1Nc1ccncc1` [Example 2-40-1, tert-butyl 3-chloro-4-({3-[5-methoxy-4-(pyridin-4-ylamino)pyrimidin-2-yl]-1H-indazol-1-yl}methyl)benzoate], for which the IC50 was 5.6 µM with HeLa cells (setting [2]) and 0.12 µM in test [1].

Take `CCOc1cc(F)c(Cn2nc(-c3ncc(OCC(=O)O)c(Nc4ccncc4)n3)c3ccccc32)c(F)c1` [Example 19-2]: the IC50 was not below 10 µM in the test on HeLa cells (4 days, crystal violet) and 0.0063 µM in test [1].

As to `COc1cnc(-c2nn(Cc3cccc(CCO)c3)c3ccccc23)nc1Nc1ccncc1` [Example 8-2, 2-[3-({3-[5-methoxy-4-(pyridin-4-ylamino)pyrimidin-2-yl]-1H-indazol-1-yl}methyl)phenyl] ethanol], the IC50 amounted to 5.5 µM with HeLa cells (setting [2]) and 0.021 µM in test [1].

`COc1cnc(-c2nn(Cc3ccccc3F)c3ccccc23)nc1Nc1ccncc1C#N` [Example 24-1, 4-({2-[1-(2-fluorobenzyl)-1H-indazol-3-yl]-5-methoxypyrimidin-4-yl}amino)pyridine-3-carbonitrile]: the IC50 in the test on HeLa cells (setting [2]) is not below 10 µM; in test [1] it was 0.062 µM.

Take `CCOc1cc(F)c(Cn2nc(-c3ncc(OC)c(Nc4ccncc4C(N)=O)n3)c3ccccc32)c(F)c1` [Example 25-3, 4-({2-[1-(4-ethoxy-2,6-difluorobenzyl)-1H-indazol-3-yl]-5-methoxypyrimidin-4-yl}amino)pyridine-3-carboxamide]: the results for the IC50 (with HeLa cells (setting [2]); in test [1]) were 4.4 µM and 0.0088 µM, respectively.

For `CCOc1cc(F)c(Cn2nc(-c3nccc(Nc4ccncc4)n3)c3ccccc32)c(F)c1` [Example 5-1, 2-[1-(4-ethoxy-2,6-difluorobenzyl)-1H-indazol-3-yl]-N-(pyridin-4-yl)pyrimidin-4-amine], the IC50 with HeLa cells (Homo sapiens, 96 h) is 1.4 µM; in test [1] it was 0.0052 µM.

For the compound `COc1cnc(-c2nn(Cc3c(F)c(F)c(OCC(F)(F)F)c(F)c3F)c3ccccc23)nc1Nc1ccncc1` [Example 2-15-1, 5-methoxy-N-(pyridin-4-yl)-2-{1-[2,3,5,6-tetrafluoro-4-(2,2,2-trifluoroethoxy)benzyl]-1H-indazol-3-yl}pyrimidin-4-amine], the IC50 in the test with HeLa cells (setting [2]) was 4.7 µM; in test [1] it was 0.038 µM.

For the compound `COc1ccc(Cn2nc(-c3ncc(OC4CC4)c(Nc4ccncc4)n3)c3ccccc32)cc1` [Example 14-1, 5-(cyclopropyloxy)-2-[1-(4-methoxybenzyl)-1H-indazol-3-yl]-N-(pyridin-4-yl)pyrimidin-4-amine], the IC50 is not below 10 µM with HeLa cells (Homo sapiens, 96 h) and 3.3 µM in test [1].

For the compound `CCOc1cc(F)c(Cn2nc(-c3nccc(N(CC4(CO)COC4)c4ccncc4)n3)c3ccccc32)c(F)c1` [Example 17-2], the IC50 in the test on HeLa cells (4 days, crystal violet) was not below 10 µM; in test [1], 2.4 µM.

`COc1cnc(-c2nn(Cc3c(Cl)ccc(C(=O)N(C)C)c3Cl)c3ccccc23)nc1Nc1ccncc1` [Example 20-3, 2,4-dichloro-3-({3-[5-methoxy-4-(pyridin-4-yla-mino)pyrimidin-2-yl]-1H-indazol-1-yl}methyl)-N,N-dimethyl-benzamide]: the IC50 came out at 4.1 µM in the test on HeLa cells (Homo sapiens, 96 h) and 1.2 µM in test [1].

For `CCCOc1cc(F)c(Cn2nc(-c3ncc(OC)c(Nc4ccncc4)n3)c3ccccc32)c(F)c1` [Example 2-52-1, 2-[1-(2,6-difluoro-4-propoxybenzyl)-1H-indazol-3-yl]-5-methoxy-N-(pyridin-4-yl)pyrimidin-4-amine], the IC50 in the test with HeLa cells (Homo sapiens, 96 h) amounted to 2.1 µM; in test [1], 0.011 µM.

With `COc1cnc(-c2nn(Cc3ccc4c(c3)OC(=O)C4)c3ccccc23)nc1Nc1ccncc1` [Example 2-38-1, 6-({3-[5-methoxy-4-(pyridin-4-ylamino)pyrimidin-2-yl]-1H-indazol-1-yl}methyl)-1-benzofuran-2(3H)-one], the results for the IC50 (in the test on HeLa cells (setting [2]); in test [1]) were not below 10 µM and 0.076 µM, respectively.

For `O=C(OCCO)c1cnccc1Nc1nc(-c2nn(Cc3ccccc3F)c3ccccc23)ncc1OCCO` [Example 13-6, 2-hydroxyethyl 4-({2-[1-(2-fluorobenzyl)-1H-indazol-3-yl]-5-(2-hydroxyethoxy)pyrimidin-4-yl}amino)pyridine-3-carboxylate], the IC50 with HeLa cells (setting [2]) is not below 10 µM; in test [1] it was 0.0086 µM.

Turning to `CCOc1cc(F)c(Cn2nc(-c3ncc(OCCOC)c(Nc4ccncc4)n3)c3ccccc32)c(F)c1` [Example 4-10, 2-[1-(4-ethoxy-2,6-difluorobenzyl)-1H-indazol-3-yl]-5-(2-methoxyethoxy)-N-(pyridin-4-yl)pyrimidin-4-amine], the IC50 in the test with HeLa cells (Homo sapiens, 96 h) was 4.4 µM; in test [1], 0.009 µM.

Consider `COc1ccc(Cn2nc(-c3ncc(OCC(F)(F)F)c(Nc4ccncc4)n3)c3ccccc32)cc1` [Example 11-1, 2-[1-(4-methoxybenzyl)-1H-indazol-3-yl]-N-(pyridin-4-yl)-5-(2,2,2-trifluoroethoxy)pyrimidin-4-amine], for which the IC50 came to 8.1 µM in the test on HeLa cells (Homo sapiens, 96 h) and 0.018 µM in test [1].

Consider `COc1cnc(-c2nn(Cc3ccc(C#N)cc3F)c3ccccc23)nc1Nc1ccncc1` [Example 2-33-1, 3-fluoro-4-({3-[5-methoxy-4-(pyridin-4-ylamino)pyrimidin-2-yl]-1H-indazol-1-yl}methyl)benzonitrile], for which the IC50 is not below 10 µM in the test on HeLa cells (setting [2]) and 0.038 µM in test [1].

With `NS(=O)(=O)COc1cnc(-c2nn(Cc3ccccc3F)c3ccccc23)nc1Nc1ccncc1` [Example 4-3, 1-({2-[1-(2-fluorobenzyl)-1H-indazol-3-yl]-4-(pyridin-4-ylamino)pyrimidin-5-yl}oxy)methane-sulfonamide], the IC50 with HeLa cells (Homo sapiens, 96 h) was 14 µM; in test [1], 0.0075 µM.

Regarding `CCOc1cc(F)c(Cn2nc(-c3nccc(N(CCO)c4ccncc4)n3)c3ccccc32)c(F)c1` [Example 17-1, 2-[{2-[1-(4-ethoxy-2,6-difluorobenzyl)-1H-indazol-3-yl]pyrimidin-4-yl}(pyridin-4-yl)amino]ethanol], the IC50 was not below 10 µM in the test on HeLa cells (setting [2]) and 0.17 µM in test [1].

With `CCOc1cc(F)c(Cn2nc(-c3ncc(OC(F)F)c(Nc4ccncc4)n3)c3ccccc32)c(F)c1` [Example 10-1, 5-(difluoromethoxy)-2-[1-(4-ethoxy-2,6-difluorobenzyl)-1H-indazol-3-yl]-N-(pyridin-4 yl)pyrimidin-4-amine], the IC50 was determined as 2 µM with HeLa cells (setting [2]) and 0.012 µM in test [1].

For `COc1cnc(-c2nn(Cc3c(Cl)cc(OC(F)(F)F)cc3Cl)c3ccccc23)nc1N(Cc1c(Cl)cc(OC(F)(F)F)cc1Cl)c1ccncc1` [Example 2-26-2, N-[2,6-dichloro-4-(trifluoromethoxy)benzyl]-2-{1-[2,6-dichloro-4-(trifluoromethoxy)benzyl]-1H-indazol-3-yl}-5-methoxy-N-(pyridin-4-yl)pyrimidin-4-amine], the IC50 in the test on HeLa cells (setting [2]) amounted to 2.9 µM; in test [1], 0.84 µM.

For the compound `COc1cnc(-c2nn(Cc3ccc(C#N)cc3)c3ccccc23)nc1Nc1ccncc1` [Example 2-42-1, 4-({3-[5-methoxy-4-(pyridin-4-ylamino)pyrimidin-2-yl]-1H-indazol-1-yl}methyl)benzonitrile], the IC50 in the test on HeLa cells (setting [2]) was not below 10 µM; in test [1], 0.19 µM.

In the case of `COc1cnc(-c2nn(Cc3c(Cl)ccc(C)c3F)c3ccccc23)nc1Nc1ccncc1` [Example 2-1-1, 2-[1-(6-chloro-2-fluoro-3-methylbenzyl)-1H-indazol-3-yl]-5-methoxy-N-(pyridin-4-yl)pyrimidin-4-amine], the IC50 in the test on HeLa cells (setting [2]) came to 3.8 µM; in test [1], 0.0026 µM.

`CCOc1cc(F)c(Cn2nc(-c3ncc(OCC(F)(F)F)c(Nc4ccncc4)n3)c3ccccc32)c(F)c1` [Example 11-2, 2-[1-(4-ethoxy-2,6-difluorobenzyl)-1H-indazol-3-yl]-N-(pyridin-4-yl)-5-(2,2,2-trifluoroethoxy) pyrimidin-4-amine]: the figures for the IC50 (in the test on HeLa cells (setting [2]); in test [1]) were not below 10 µM and 0.01 µM, respectively.

With `C#Cc1ccc(Cn2nc(-c3ncc(OC)c(Nc4ccncc4)n3)c3ccccc32)c(F)c1` [Example 21-1, 2-[1-(4-ethynyl-2-fluorobenzyl)-1H-indazol-3-yl]-5-methoxy-N-(pyridin-4-yl)pyrimidin-4-amine], the IC50 was 3.8 µM in the test with HeLa cells (setting [2]) and 0.028 µM in test [1].

In the case of `COc1cnc(-c2nn(Cc3ccc4c(c3)NC(=O)CC4)c3ccccc23)nc1Nc1ccncc1` [Example 2-27-1, 7-({3-[5-methoxy-4-(pyridin-4-ylamino)pyrimidin-2-yl]-1H-indazol-1-yl}methyl)-3,4-dihydroquinolin-2(1H)-one], the IC50 is not below 10 µM in the test with HeLa cells (setting [2]) and 0.02 µM in test [1].

As to `COc1cnc(-c2nn(Cc3c(F)ccc(C)c3F)c3ccccc23)nc1Nc1ccncc1` [Example 2-48-1, 2-[1-(2,6-difluoro-3-methylbenzyl)-1H-indazol-3-yl]-5-methoxy-N-(pyridin-4-yl)pyrimidin-4-amine], the IC50 was not below 10 µM with HeLa cells (Homo sapiens, 96 h) and 0.0055 µM in test [1].

Regarding `CCOC(=O)c1cnccc1Nc1nc(-c2nn(Cc3ccccc3F)c3ccccc23)ncc1OCCO` [Example 13-3, ethyl 4-({2-[1-(2-fluorobenzyl)-1H-indazol-3-yl]-5-(2-hydroxyethoxy)pyrimidin-4-yl}amino)pyridine-3-carboxylate], the IC50 in the test on HeLa cells (Homo sapiens, 96 h) is not below 10 µM; in test [1], 0.017 µM.

For the compound `COc1ccc(Cn2nc(-c3ncc(OC)c(Nc4ccnc(F)c4)n3)c3ccccc32)cc1` [Example 34-1, N-(2-fluoropyridin-4-yl)-5-methoxy-2-[1-(4-methoxybenzyl)-1H-indazol-3-yl]pyrimidin-4-amine], the IC50 is not below 10 µM in the test with HeLa cells (Homo sapiens, 96 h) and 0.23 µM in test [1].

Take `COc1cnc(-c2nn(Cc3c(Cl)ccc(OC)c3F)c3ccccc23)nc1Nc1ccncc1` [Example 2-2-1, 2-[1-(6-chloro-2-fluoro-3-methoxybenzyl)-1H-indazol-3-yl]-5-methoxy-N-(pyridin-4-yl)pyrimidin-4-amine]: the values for the IC50 (in the test with HeLa cells (setting [2]); in test [1]) were 3.4 µM and 0.0026 µM, respectively.

Values taken from patent publication US10266548B2, “Substituted benzylindazoles for use as Bub1 kinase inhibitors in the treatment of hyperproliferative diseases” (Bayer Intellectual Property GmbH, priority 2011, dated 2019).
